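Cells were grown in 96-well plates and exposed to each compound for 48 hours at five concentrations; endpoints were interpolated linearly between bracketing concentrations, or set to the highest concentration if not reached. GI50 marks 50% less growth.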 The source made the active and inactive calls. Cut-off read from the data, not from the text of the source: active = GI50 up to about 1.1 µM and inactive = higher.
Columns and labels:
Assay in all cases: inhibition of tumour cell growth, NCI panel, 48 h
[1] = tested on: HT-29
[2] = tested on: OVCAR-5
[3] = tested on: Malme-3M
[4] = tested on: K562
[5] = tested on: SW-620
[6] = tested on: SF-295
[7] = tested on: KM12
[8] = tested on: MOLT-4
[9] = tested on: MDA-MB-231
[10] = tested on: MCF7
[11] = tested on: HOP-62
[12] = tested on: OVCAR-3
[13] = tested on: NCI-H226
[14] = tested on: M14
[15] = tested on: BT-549
[16] = tested on: UACC-257
[17] = tested on: HCT-15
[18] = tested on: COLO 205
[19] = tested on: LOX IMVI
[20] = tested on: A498
[21] = tested on: HCT-116
[22] = tested on: NCI-H23
[23] = tested on: OVCAR-8
[24] = tested on: MDA-MB-435
[25] = tested on: SF-539
[26] = tested on: DU-145
[27] = tested on: U-251
[28] = tested on: CAKI-1
[29] = tested on: SR
[30] = tested on: CCRF-CEM
[31] = tested on: HOP-92
[32] = tested on: OVCAR-4
[33] = tested on: SNB-19
[34] = tested on: SN12C
[35] = tested on: HL-60
[36] = tested on: Hs-578T
[37] = tested on: SK-OV-3
[38] = tested on: 786-0
[39] = tested on: IGROV-1
[40] = tested on: NCI-H460
[41] = tested on: NCI-H522
[42] = tested on: RPMI-8226
[43] = tested on: A549
[44] = tested on: RXF 393
[45] = tested on: MDA-N
[46] = tested on: PC-3
[47] = tested on: SF-268
[48] = tested on: SK-MEL-2
[49] = tested on: TK-10
[50] = tested on: ACHN
[51] = tested on: SK-MEL-5
[52] = tested on: EKVX
[53] = tested on: SK-MEL-28
[54] = tested on: T47D
[55] = tested on: SNB-75
[56] = tested on: UACC-62
[57] = tested on: UO-31
[58] = tested on: NCI/ADR-RES
[59] = tested on: HCC 2998

Measured: GI50

CC(=O)NNC(=O)C1CCCCN1 (stereo not given)
inactive: [1] > 100 µM | [2] > 100 µM | [3] > 100 µM | [4] > 100 µM | [5] > 100 µM | [6] > 100 µM | [7] > 100 µM | [8] > 100 µM | [9] > 100 µM | [10] > 100 µM | [11] > 100 µM | [12] > 100 µM | [13] > 100 µM | [14] > 100 µM | [15] > 100 µM | [16] > 100 µM | [18] > 100 µM | [19] > 100 µM | [20] > 100 µM | [21] > 100 µM | [22] > 100 µM | [23] > 100 µM | [24] > 100 µM | [25] > 100 µM | [26] > 100 µM | [27] > 100 µM | [28] > 100 µM | [29] > 100 µM | [30] > 100 µM | [31] > 100 µM | [32] > 100 µM | [33] > 100 µM | [34] > 100 µM | [35] > 100 µM | [36] > 100 µM | [37] > 100 µM | [38] > 100 µM | [39] > 100 µM | [40] > 100 µM | [41] > 100 µM | [42] > 100 µM | [43] > 100 µM | [44] > 100 µM | [45] > 100 µM | [46] > 100 µM | [47] > 100 µM | [48] > 100 µM | [49] > 100 µM | [50] > 100 µM | [51] > 100 µM | [52] > 100 µM | [53] > 100 µM
> 100 µM: [17]

CNc1nncc2[nH]cnc12
inactive: [1] > 100 µM | [5] > 100 µM | [7] > 100 µM | [8] > 100 µM | [9] > 100 µM | [10] > 100 µM | [54] > 100 µM | [15] > 100 µM | [16] > 100 µM | [55] > 100 µM | [18] > 100 µM | [19] > 100 µM | [20] > 100 µM | [56] > 100 µM | [21] > 100 µM | [23] > 100 µM | [24] > 100 µM | [26] > 100 µM | [27] > 100 µM | [28] > 100 µM | [30] > 100 µM | [31] > 100 µM | [33] > 100 µM | [34] > 100 µM | [35] 32.4 µM | [36] > 100 µM | [37] > 100 µM | [38] > 100 µM | [39] > 100 µM | [42] > 100 µM | [44] > 100 µM | [45] > 100 µM | [57] > 100 µM | [47] > 100 µM | [49] > 100 µM | [50] > 100 µM | [51] > 100 µM | [52] > 100 µM | [53] > 100 µM
> 100 µM: [17]

NCCCCC(N)C(=O)N1CCN(c2nc(N3CCCC3)c3nc(Cl)c(NCc4ccccc4)nc3n2)CC1 (stereo not given)
inactive: [1] 18.9 µM | [2] 19.1 µM | [3] 23 µM | [4] 21.9 µM | [5] 19.6 µM | [6] 18.5 µM | [7] 21.8 µM | [8] 24.5 µM | [9] 18.1 µM | [10] 19.6 µM | [11] 13.9 µM | [12] 18.9 µM | [13] 20.8 µM | [14] 19.1 µM | [15] 18.5 µM | [16] 18.2 µM | [55] 16.6 µM | [58] 44.6 µM | [59] 19.1 µM | [18] 17.4 µM | [19] 17.5 µM | [56] 17.9 µM | [21] 16.6 µM | [22] 19.4 µM | [23] 14 µM | [24] 23.2 µM | [25] 18.5 µM | [26] 16.9 µM | [27] 18.9 µM | [28] 31 µM | [29] 18.1 µM | [30] 15.5 µM | [31] 10.3 µM | [32] 23.2 µM | [33] 17.1 µM | [34] 18.4 µM | [35] 17 µM | [36] 19.4 µM | [37] 20.2 µM | [38] 17.8 µM | [39] 14.1 µM | [40] 17.5 µM | [41] 19.3 µM | [42] 17.8 µM | [43] 18.5 µM | [44] 15.9 µM | [45] 17.7 µM | [57] 17.5 µM | [46] 17.8 µM | [47] 20 µM | [48] 19 µM | [49] 19.2 µM | [50] 19.1 µM | [51] 18.1 µM | [52] 18.7 µM | [53] 20.7 µM
17.7 µM: [17]
